Data set [1] can be described thus: Acute toxicity in male and female Wistar rats. The conditions noted are these: in vivo; oral; male rat; observed 7 days. How it is done: 2-(4-Benzhydryl-1-piperazinyl)ethyl methyl 2,6-dimethyl-4-(3-nitrophenyl)-1,4-dihydropyridine-3,5-dicarboxylate dihydrochloride was suspended in a 5% solution of gum arabic and orally administered to male and female Wistar rats aged 5 weeks (body weight 105 to 139 g) in a dose of 62.5, 125, 250, 500 and 1000 mg/kg (in groups of 4 to 8) and each animal so treated was observed over a period of 7 days.

The subject of data set [2] is spontaneously hypertensive rats. Put plainly: Renal blood flow increasing effect (renal circulation improving effect) in anesthetized male spontaneously hypertensive rats. It is filed as in vivo. To be noted: Rattus norvegicus, iv. How it is done: Male spontaneously hypertensive rats aged 10 to 11 weeks (3 to 6 animals per group) were anesthetized with pentobarbital and used. After laparotomy, an electromagnetic flowmeter probe (Narco) was fitted to the left renal artery and the renal blood flow was continuously recorded on a polygraph (Sanei Sokki K.K.). […] Each test compound was dissolved in polyethylene glycol 400 to prepare a stock solution. This stock solution was diluted five-fold with physiological saline and the dilution was intravenously administered to rats in a volume of 0.5 ml/kg body weight. The dosage was 0.01 mg/kg for all test compounds. The renal blood flow was measured over a period of 40 minutes following the medication. The values shown are: [formula]

The test system is the same in data set [3]. Description: Antihypertensive action (systolic blood pressure, caudal artery) in male spontaneously hypertensive rats. The class given is in vivo, rat. To be noted: 10 mg/kg oral. How it is done: Male spontaneously hypertensive rats aged 10 to 11 weeks were used (in groups of 3 to 6 individuals). […] Each test compound was suspended in a 5% solution of gum arabic and orally administered. The dosage was 10 mg/kg for all compounds. Animals in a control group was given the above solution of gum arabic only.

Like-named read-outs stand apart in the source and are kept apart here.

One may read the LD50 as the dose expected to kill half of the subjects tested. Low values mean greater toxicity, high ones lower toxicity. Take `COC(=O)C1=C(C)NC(C)=C(C(=O)OCCN2CCN(C(c3ccccc3)c3ccccc3)CC2)C1c1cccc([N+](=O)[O-])c1.Cl.Cl` (stereo not shown) [2-(4-Benzhydryl-1-piperazinyl)ethyl methyl 2,6-dimethyl-4-(3-nitrophenyl)-1,4-dihydropyridine-3,5-dicarboxylate dihydrochloride]: the 50% lethal dose (LD50) at 168 h in data set [1] lay in the range of 250 to 500 mg/kg.

`COC(=O)C1=C(C)NC(C)=C(C(=O)OC)C1c1ccccc1[N+](=O)[O-]` [Nifedipine, reference compound]: the change in vivo at 0.01 mg/kg in data set [2] (1 min, read-out: Change in renal blood flow, 1 Minute after medication) was found to be 3%; in data set [2] (20 min, read-out: Change in renal blood flow, 20 Minutes after medication) it was 3.1%; in data set [2] (40 min, read-out: Change in renal blood flow, 40 Minutes after medication) it was 2.2%. Moreover, in data set [3] (1 hr., after minus before medication, * P < 0.05 vs control), the “Change in blood pressure 1 hr. after treatment” value is recorded as -45 mmHg. In addition, the “Change in blood pressure 5 hrs. after treatment” value in data set [3] (5 hrs., after minus before medication, * P < 0.05 vs control) is -3 mmHg. The “Duration of antihypertensive effect” value in data set [3] (measured 1, 5, 8 and 24 hours after administration) is under 5 h.
